Measurements published in patent publication US11571413B2, “Nicotinamide riboside treatments of domesticated meat animals” (Kansas State University Research Foundation, priority 2017, dated 2023).

Assays:
[1] = tested on: Fertilized Cobb 500 broiler eggs; test: Pectoralis major muscle fiber morphometrics and satellite cell content (second Example VI); format: in vivo, chicken
Experimental: The methods of Gonzalez and Jackson (2020) were followed for immunohistochemistry analysis. On 2 separate slides, 6 cryosections (10 μm thick) were collected on positively charged slides (Diamond White Glass; Globe Scientific Inc., Paramus, N.J.). Cryosections were incubated in 5% horse serum and 0.2% TritonX-100 in phosphate buffered saline (PBS) for 30 min to block all nonspecific binding sites. Cryosections were incubated for 16 h at 4° C. with a primary antibody solution comprising blocking solution and 1:500 rabbit α-dystrophin (Thermo Scientific, Waltham, Mass.) and 1:2 […] α-Pax7 antibody (Developmental Studies Hybridoma Bank, Iowa City, Iowa). Cryosections were washed 3 times for 5 min with PBS and incubated for 30 min with 1:1,000 Alexa-Flour 594 goat-anti-rabbit H&L (Life Technologies, Carlsbad, Calif.), 1:1000 Alexa-Flour 488 chicken-anti-mouse IgG1 (Life Technologies), and 1:1,000 Hoescht Dye 33342 (Life technologies) secondary antibodies in blocking solution. After washing in PBS 3 times for 5 min, 5 μL of 9:1 glycerol in PBS was placed on each cryosection and slides were coverslipped for imaging. All cryosections were imaged at 200× magnification using a Nikon Eclipse TI-U inverted microscope (Nikon Instruments Inc., Melville, N.Y.). Immunohistochemistry photomicrographs were collected with a DS-QiMC digital camera (Nikon Instruments Inc.) and SDH cryosections were collected with a Nikon DS-Fil color digital camera (Nikon Instruments Inc.) White light intensity was kept constant for SDH photomicrographs. All photomicrograph collection and image analyses were conducted using NIS Elements Basic Software (Nikon Instruments Inc.). Cross-sectional area (CSA) of a minimum of 1,000 muscle fibers per chick was determined as the area within the dystrophin border. The number of satellite cell was determined as nuclei co-staining for Pax 7 and Hoechst dye located at the periphery of muscle fiber. A minimum of 50 muscle fiber bundles per chick were analyzed for SDH mean intensity using the same software. The scale for mean intensity ranged from 0 (black or the most intense staining) to 250 (white or the least intense staining).

growing pigs [2] = test: Oral NR for 7 days in growing pigs: average daily gain and loin eye area (Example III); format: in vivo, pig
Experimental: (§1) Nine growing pigs were blocked by bodyweight (BW) and placed in metabolism crates. After a 3-day acclimation period, pigs within each BW block were randomly assigned to a treatment (n=3 pigs/treatment). Treatments comprised pigs supplemented 0, 15, or 30 mg/kg BW NR for 7 days. Pigs were allowed ad libitum access to a standard growing diet and water. Treatments were administered daily at 8 a.m. by mixing NR in 20 mL of Karo® dark syrup and orally drenching the pigs. On day 0 and 3 of the trial, muscle biopsies of the LL were taken for NAD+ analysis using standard procedures. At day 7, pigs were transported to the Kansas State University Meats Laboratory and euthanized by a captive penetrating bolt to the brain, followed by exsanguination. Following harvest procedures, 3 g of the LL were collected for NAD+ analysis. Twenty-four hours after harvest, the whole LL not sampled at harvest was removed from the carcass and aged 10 days. After aging, the LL was cut into 6 chops for retail color stability analysis, including 6-day surface oxy- and metmyoglobin percentage, 6-day objective and subjective color panel evaluation, and day 4 and 6 metmyoglobin reducing ability (MRA).

growing pigs [3] = test: Longissimus lumborum muscle fiber distribution and succinate dehydrogenase staining (Example III); format: in vivo, pig; conditions: 30 mg/kg BW, 7 days; numerical
Experimental: as §1

growing pigs [4] = test: Longissimus lumborum chop retail color stability, 6-day display (Example III); format: in vivo, pig; conditions: for Greater discoloration score of 0 mg/kg chops than NR chops: day 6 of display
Experimental: as §1

[5] = tested on: Fertilized Cobb 500 broiler eggs; test: Cyclin D mRNA expression by real-time PCR (second Example VI); format: in vivo, chicken; conditions: 250, 500 mM or 1 M NR; hatched chicks
Experimental: The methods of Burnett et al. (2016) were followed with minor modifications. Briefly, nucleic acids were extracted and purified from 200 mg of the left biceps femoris muscle using Trizol (Life Technologies), followed by subjecting the nucleic acids to PureLink™ RNA
Mini Kit (Life Technologies, Carlsbad, Calif.). Total RNA concentration and 260 nm/280 nm ratio were quantified and extractions yielding RNA with a ratio greater than 1.9 were used for real-time PCR analysis. Trace genomic DNA contamination and reverse transcription were conducted on 50 ng of total RNA using a High-Capacity cDNA Reverse Transcription Kit (Life Technologies). Gene specific primers were designed, efficiencies determined, and validated for qPCR (Table 7). Complementary DNA was amplified in duplicate for each sample using PerfeCTa SYBR Green FastMix (Quanta Biosciences, Gaithersburg, Md.) and the appropriate gene specific forward and reverse primers (20 pM) in an Eppendorff Mastercycler realplex2 S PCR System (Eppendorf North America, Hauppauge, N.Y.). Thermal cycling parameters were initial heating at 50° C. for 2 min, denaturing at 95° C. for 10 min, 50 cycles of 15 s at 95.0° C., annealing at 60.5° C. for 30 s, and extension for 20 s at 68.0° C. A final dissociation step was included at 95° C. for 15 s, 60° C. for 30 s, and 95° C. for 15 s. Expression was normalized to 18S ribosomal RNA expression (ΔCt, where Ct refers to the threshold cycle), and calibrated to control chick (0 mM) mRNA expression (ΔΔCt). Gene fold change expression levels were calculated as 2^−ΔΔCt as previously described by Livak and Schmittgen (2001).

[6] = 250, 500 mM or 1 M NR, hatched chicks
[7] = 250 and 500 mM NR, hatched chicks

NC(=O)c1ccc[n+]([C@@H]2O[C@H](CO)[C@@H](O)[C@H]2O)c1 [Nicotinamide riboside, nicotinamide riboside]
Increase of satellite cell density compared to control ([1]; 250 mM NR, at hatching): 73% | Satellite cell density vs control chicks ([1]; 250 mM NR, hatched chicks): greater | Average increase of satellite cell density compared to control ([1]; 500 mM and 1 M NR, at hatching): 116% | Satellite cell density vs 0 and 250 mM treatments ([1]; 500 mM or 1 M NR, hatched chicks): greater satellite cell density | Increase of muscle fiber density compared to control chicks ([1]; 1 M NR, hatched chicks): 75% | Muscle fiber density vs all other treatments ([1]; 1 M NR, hatched chicks): greater muscle fiber density | Muscle fiber CSA [1, 6]: no treatment effect | Number of satellite cells per muscle fiber [1, 6]: no treatment effect | Increase of muscle fiber density compared to control chicks (average) [1, 7]: 34% | Muscle fiber density vs control chicks [1, 7]: greater muscle fiber density | Loin eye area (LEA) vs 0 mg/kg (growing pigs [2]; 15 mg/kg BW oral daily): did not differ | Better ADG compared to pigs in the other two treatments (numerical trend) (growing pigs [2]; 30 mg/kg BW oral daily): 4.4% | Larger loin eyes than pigs fed 0 mg/kg NR (growing pigs [2]; 30 mg/kg BW oral daily): 52% | Larger loin eyes than pigs fed 15 mg/kg NR (growing pigs [2]; 30 mg/kg BW oral daily): 48% | Muscle fiber distribution vs 0 mg/kg LL (growing pigs [3]): less type 2B (glycolytic) fibers and more type 1 and 2A (oxidative) fibers | Succinate dehydrogenase staining in type 2B fibers vs other two treatments (growing pigs [3]): more intense staining | Visual panel discoloration scores between treatments (growing pigs [4]; 0, 15 and 30 mg/kg, days 1, 4 and 5 of display): did not differ | Less surface metmyoglobin accumulation than 0 mg/kg chops (tendency) (growing pigs [4]; 15 mg/kg BW, 7 days, LL chops, entire 6-day display): 9% | Greater discoloration score of 0 mg/kg chops than NR chops (growing pigs [4]; 15 mg/kg): 41% | Less discoloration than 0 mg/kg chops (tendency) (growing pigs [4]; 15 mg/kg, entire 6-day study): 27% | More MRA than 0 mg/kg chops (tendency) (growing pigs [4]; 15 mg/kg, over the entire study): 42% | Less surface metmyoglobin than 0 mg/kg chops (growing pigs [4]; 30 mg/kg BW, 7 days, LL chops, entire 6-day display): 14% | Greater discoloration score of 0 mg/kg chops than NR chops (growing pigs [4]; 30 mg/kg): 39% | Less surface discoloration than 0 mg/kg chops (growing pigs [4]; 30 mg/kg, entire 6-day study): 30% | More metmyoglobin reducing ability (MRA) than 0 mg/kg chops (growing pigs [4]; 30 mg/kg, over the entire study): 64% | Surface discoloration of 0 mg/kg chops vs 15 and 30 mg/kg chops (growing pigs [4]; days 2 and 3 of display): tended to have more surface discoloration | Cyclin D1 and 2 mRNA expression [5]: no treatment effects | Cyclin D3 mRNA expression, control vs all NR treatments [5]: Control chicks had greater cyclin D3 expression | Greater cyclin D3 mRNA expression of control chicks than NR chicks (average) [5]: 38%
